This note sets out measurements from ChEMBL document CHEMBL4118287, “Polysaccharide deacetylases serve as new targets for the design of inhibitors against Bacillus anthracis and Bacillus cereus” (Bioorg Med Chem, 2018).

≈ marks a conversion by molar mass, not a printed value. Calls of active or inactive are those of the source.

In data set [1] the test system is Bacillus anthracis. The experiment in a line: Ratio of MBC to MIC for Bacillus anthracis 7702 measured after 16 hrs in absence of lysozyme. Format: functional.
The test system of data set [2] is Bacillus cereus. The experiment in a line: Bactericidal activity against Bacillus cereus ATCC 14579 measured after 72 hrs in presence of lysozyme. Particulars: ATCC 14579, 72 h. Format: functional.
Data set [3] addresses T1, Peptidoglycan-N-acetylglucosamine deacetylase BC_1974 (Bacillus cereus (strain ATCC 14579 / DSM 31 / JCM 2152 / NBRC 15305 /NCIMB 9373 / NRRL B-3711), UniProt Q81EJ6).
T1 sequence (Q81EJ6 whole entry): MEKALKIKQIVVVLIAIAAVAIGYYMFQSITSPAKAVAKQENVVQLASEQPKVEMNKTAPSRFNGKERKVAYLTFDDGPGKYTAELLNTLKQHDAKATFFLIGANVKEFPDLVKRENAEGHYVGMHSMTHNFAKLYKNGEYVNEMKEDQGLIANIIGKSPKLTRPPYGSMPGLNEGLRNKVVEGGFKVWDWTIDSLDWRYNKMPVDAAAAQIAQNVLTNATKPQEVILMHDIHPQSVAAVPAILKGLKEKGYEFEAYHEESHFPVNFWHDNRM
As to the kind of experiment: Competitive inhibition of recombinant Bacillus cereus BC1974 expressed in Escherichia coli using varying levels of GlcNAc5 as substrate measured after 5 mins in presence of fluorescamine by Line-weaver burk plot analysis. Particulars: read-out: Ki(app).

Data set [4] concerns Bacillus cereus. The experiment in a line: Ratio of MBC to MIC for Bacillus cereus ATCC 14579 measured after 16 hrs in presence of lysozyme. Format: functional.
Data set [5] deals with Bacillus anthracis. The experiment in a line: Bactericidal activity against Bacillus anthracis 7702 measured after 72 hrs in presence of lysozyme. Conditions: Bacillus anthracis, 7702, 72 h. Format: functional.
In data set [6] the test system is Bacillus anthracis. As to the kind of experiment: Antibacterial activity against Bacillus anthracis 7702 measured after 16 hrs in presence of lysozyme. Type of data set: functional. Conditions: Bacillus anthracis, 7702, 16 h.
The target in data set [7] is T1, Peptidoglycan-N-acetylglucosamine deacetylase BC_1974. As to the kind of experiment: Inhibition of recombinant Bacillus cereus BC1974 expressed in Escherichia coli using GlcNAc5 as substrate measured after 5 mins by fluorescamine based fluorescence assay.
In data set [8] the test system is Bacillus cereus. As to the kind of experiment: Ratio of MBC to MIC for Bacillus cereus ATCC 14579 measured after 16 hrs in absence of lysozyme. Format: functional.
For data set [9], the target named is T2, Peptidoglycan-N-acetylglucosamine deacetylase BC_1960 (Bacillus cereus (strain ATCC 14579 / DSM 31 / JCM 2152 / NBRC 15305 /NCIMB 9373 / NRRL B-3711), UniProt Q81EK9).
T2 sequence (Q81EK9 whole entry): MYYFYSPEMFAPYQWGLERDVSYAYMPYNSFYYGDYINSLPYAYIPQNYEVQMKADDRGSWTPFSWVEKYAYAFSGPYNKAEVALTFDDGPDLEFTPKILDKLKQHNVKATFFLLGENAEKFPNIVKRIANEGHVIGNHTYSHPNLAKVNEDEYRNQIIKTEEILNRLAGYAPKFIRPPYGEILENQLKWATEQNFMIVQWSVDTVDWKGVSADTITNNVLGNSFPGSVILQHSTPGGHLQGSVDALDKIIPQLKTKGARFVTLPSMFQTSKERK
The experiment in a line: Inhibition of recombinant Bacillus cereus BC1960 expressed in Escherichia coli using GlcNAc5 as substrate measured after 10 mins by fluorescamine based fluorescence assay.

Data set [10] concerns Bacillus cereus. As to the kind of experiment: Antibacterial activity against Bacillus cereus ATCC 14579 measured after 16 hrs in absence of lysozyme. Type of data set: functional. Conditions: ATCC 14579, 16 h.
The target of data set [11] is T2, Peptidoglycan-N-acetylglucosamine deacetylase BC_1960. As to the kind of experiment: Competitive inhibition of recombinant Bacillus cereus BC1960 expressed in Escherichia coli using varying levels of GlcNAc5 as substrate measured after 10 mins in presence of fluorescamine by Line-weaver burk plot analysis. Particulars: read-out: Ki(app).
Data set [12] concerns Bacillus cereus. The experiment in a line: Bactericidal activity against Bacillus cereus ATCC 14579 measured after 72 hrs in absence of lysozyme. Format: functional. Conditions: ATCC 14579, 72 h.
Data set [13] relates to Bacillus cereus. As to the kind of experiment: Antibacterial activity against Bacillus cereus ATCC 14579 measured after 16 hrs in presence of lysozyme. Format: functional. Particulars: ATCC 14579, 16 h.
For data set [14], the system named is Bacillus anthracis. The experiment in a line: Antibacterial activity against Bacillus anthracis 7702 measured after 16 hrs in absence of lysozyme. Type of data set: functional. Conditions: Bacillus anthracis, 7702, 16 h.
Data set [15] has as its system Bacillus anthracis. The experiment in a line: Inhibition of Bacillus anthracis 7702 BA1977 assessed as induction of lysozyme sensitivity at 50 uM incubated for 250 mins under shaking condition measured every 30 mins.
The subject of data set [16] is Bacillus anthracis. As to the kind of experiment: Bactericidal activity against Bacillus anthracis 7702 measured after 72 hrs in absence of lysozyme. Type of data set: functional. Conditions: Bacillus anthracis, 7702, 72 h.
Data set [17] has as its system Bacillus anthracis. The experiment in a line: Ratio of MBC to MIC for Bacillus anthracis 7702 measured after 16 hrs in presence of lysozyme. Format: functional.
Data set [18] has as its system Bacillus cereus. As to the kind of experiment: Antibacterial activity against Bacillus cereus ATCC 14579 assessed as production of longer chains of daughter cells at 40 ug/ml incubated 16 hrs under shaking condition by scanning electron microscopic analysis. Format: functional, organism-based.
For data set [19], the system named is Bacillus anthracis. As to the kind of experiment: Inhibition of Bacillus anthracis 7702 BA1977 assessed as induction of lysozyme sensitivity at 10 to 50 uM incubated for 250 mins under shaking condition measured every 30 mins.
Compound in data set [20]: O=C(NO)c1ccc(-c2cccc3ccccc23)cc1
As to the kind of experiment: Competitive inhibition of recombinant Bacillus cereus BC1974 expressed in Escherichia coli assessed as substrate Km at 40 uM using varying levels of GlcNAc5 as substrate measured after 5 mins in presence of fluorescamine by Line-weaver burk plot analysis.

Compound in data set [21]: O=C(NO)c1ccc(-c2cccc3ccccc23)cc1
As to the kind of experiment: Competitive inhibition of recombinant Bacillus cereus BC1974 expressed in Escherichia coli assessed as substrate Km at 20 uM using varying levels of GlcNAc5 as substrate measured after 5 mins in presence of fluorescamine by Line-weaver burk plot analysis.

For `O=C(NO)c1ccc(-c2cccc3ccccc23)cc1`, the Ratio in the data set on Bacillus anthracis [1], in the data set with Bacillus cereus [4], in the data set with Bacillus cereus [8] and in the data set with Bacillus anthracis [17] was less than 4 throughout. In addition, the MBC (usually the smallest concentration meeting the test's criterion for killing) with Bacillus cereus [2] was determined as 8.23 µg/mL; in the data set on Bacillus anthracis [5] it was 8.23 µg/mL; against Bacillus cereus [12], 8.23 µg/mL (≈ 31.3 µM); in the data set with Bacillus anthracis [16] it was 8.23 µg/mL (≈ 31.3 µM). In addition, the Ki in data set [3] worked out at 8.7 µM; in [11], 66 µM. For the same molecule, the MIC (usually the least concentration at which growth counts as inhibited) in the data set with Bacillus anthracis [6] was determined as 6.58 µg/mL; in the data set on Bacillus cereus [10], 6.58 µg/mL (≈ 25 µM); in the data set with Bacillus cereus [13], 5.26 µg/mL; against Bacillus anthracis [14] it was 7.89 µg/mL (≈ 30 µM). The figures for the IC50 in data set [7] and in data set [9] were 43.3 µM and 132 µM, respectively. Further, in the data set on Bacillus anthracis [15], the inhibition entry is “Active”. Further, the outcome in the data set on Bacillus cereus [18] was Active.
Regarding `O=C(NO)c1cccc2ccccc12`, the inhibition entry in the data set on Bacillus anthracis [19] was “inactive”.
Same read-out and setting: then `O=C(NO)c1cccc(Oc2ccccc2)c1`, with “inactive”.
Still for that read-out and setting: under `O=C(NO)c1cccc(-c2ccccc2)c1` stands “inactive”.

B1: Peptidoglycan-N-acetylglucosamine deacetylase BC_1974 (Bacillus cereus (strain ATCC 14579 / DSM 31 / JCM 2152 / NBRC 15305 /NCIMB 9373 / NRRL B-3711)), Q81EJ6 (protein)
chain: MEKALKIKQIVVVLIAIAAVAIGYYMFQSITSPAKAVAKQENVVQLASEQPKVEMNKTAPSRFNGKERKVAYLTFDDGPGKYTAELLNTLKQHDAKATFFLIGANVKEFPDLVKRENAEGHYVGMHSMTHNFAKLYKNGEYVNEMKEDQGLIANIIGKSPKLTRPPYGSMPGLNEGLRNKVVEGGFKVWDWTIDSLDWRYNKMPVDAAAAQIAQNVLTNATKPQEVILMHDIHPQSVAAVPAILKGLKEKGYEFEAYHEESHFPVNFWHDNRM
Take B1: the Km (commonly the concentration of substrate that gives half-maximal velocity) in [20] was 42 µM; in data set [21], 22.8 µM.
